“Also recorded” adds a separate entry of the source. Where two headings read alike, the source gives them in different places.
What was measured:
[1] = biological target: SARS-CoV-2 RdRp nsp12/7/8 complex (Severe acute respiratory syndrome coronavirus 2, UniProt P0DTD1); assay: biochemical; assay type: biochemical; details: for IC50: RdRp IC50 [µM]; for inhibition at 20 µM: read-out: RdRp Inhibition [%] 20 µM (PS Inhibition RdRp [%])
[2] = biological target: SARS-CoV-2 helicase (nsp13) (Severe acute respiratory syndrome coronavirus 2, UniProt P0DTD1); assay: biochemical; assay type: biochemical
RdRp complex = RdRp complex (Severe acute respiratory syndrome coronavirus 2, UniProt P0DTD1); assay type: binding, SARS-CoV-2
GTPase dynamin = details: read-out: IC50 GTPase dynamin; ref Medchemexpress, 2023; cited from earlier work
[3] = biological target: SARS-CoV-2 nsp13 NTPase activity (Severe acute respiratory syndrome coronavirus 2, UniProt P0DTD1); assay: biochemical; assay type: biochemical
SARS-CoV-2 helicase = SARS-CoV-2 helicase (Severe acute respiratory syndrome coronavirus 2, UniProt P0DTD1); assay type: binding
SARS-CoV-2 RdRp = details: biochemical readout; ref Yin et al., 2021; cited from earlier work
[4] = read-out: Helicase Inhibition [%] 20 µM (PS Inhibition Helicase [%])
[5] = read-out: DTT Helicase unwinding inhibition [%] 2.5 µM triplicates

| Structure (SMILES) | change of RdRp IC50 with increasing ATP concentration [1] | change of RdRp IC50 with increasing oligo-U concentration [1] | IC50 [1] [µM] | inhibition at 20 µM [1] [%] | inhibition at 20 µM [2, 4] [%] | PicoGreen effect [%] 20 µM (annealed dsDNA substrate) [%] | RdRp Tm °C 20 µM (RdRp complex) [°C] | RdRp Tm °C 100 µM (RdRp complex) [°C] | effect on RdRp melting temperature (RdRp complex) | DTT nsp13 inhibition [%] 20 µM (DTT HC Helicase inhibition [%]) [2] [%] | inhibition at 2.5 µM [2, 5] [%] | DTT Helicase ATPase activity PLUS DNA substrate 2 µM [3] | DTT Helicase ATPase activity [%] 2 µM [3] [%] | Helicase Tm °C 20 µM (SARS-CoV-2 helicase) [°C] | Helicase Tm °C 100 µM (SARS-CoV-2 helicase) [°C] | effect on helicase Tm (SARS-CoV-2 helicase) | IC50 ([2]; DTT Helicase IC50 [µM]) [µM] | other results |
| --- | --- | --- | --- | --- | --- | --- | --- | --- | --- | --- | --- | --- | --- | --- | --- | --- | --- | --- |
| O=C(N/N=C/c1ccc(O)c(O)c1)c1cc2ccccc2cc1O [dynasore] | did not detect any change | gain of potency in the presence of 3 µM oligo-U | 6.22 | 96.1 | 7.02 | 6.63 | 43.3 | 44.5 | concentration-dependent protein stabilizing effect | – | – | – | – | – | – | – | – | increase of Tm of RdRp (RdRp complex): about 1.5 K; IC50 (GTPase dynamin): 15 µM |
| CC1=NN(c2ccc(C)c(C)c2)C(=O)/C1=N\Nc1cccc(-c2cccc(C(=O)O)c2)c1O [eltrombopag olamine] | – | – | 4.29 | 95.2 | 3.09 | 21.05 | 41.5 | 43.6 | – | – | – | – | – | – | – | – | – | – |
| O=c1c(O)c(-c2ccc(O)c(O)c2)oc2cc(O)ccc12 [fisetin (fustel), fisetin] | – | – | 2.17 | 95.8 | 39.3 | 4.99 | 42.7 | 43.5 | – | – | – | – | – | – | – | – | – | – |
| O=c1c(O)c(-c2cc(O)c(O)c(O)c2)oc2cc(O)cc(O)c12 [myricetin (cannabiscetin), myricetin] | – | – | – | – | 100 | – | 42.7 | 43.6 | no shift in Tm | 67.25 | 22.1 | 77.50 | 62.36 | 38.3 | 38.8 | did not result in a Tm change | – | inhibition at 20 µM ([2]; read-out: DTT nsp13 inhibition [%] 20 µM (DTT HC Helicase inhibition [%])): > 50% |
| CO[C@H](C(=O)[C@@H](O)[C@@H](C)O)[C@@H]1Cc2cc3cc(O[C@H]4C[C@@H](O[C@H]5C[C@@H](O)[C@H](O)[C@@H](C)O5)[C@H](O)[C@@H](C)O4)c(C)c(O)c3c(O)c2C(=O)[C@H]1O[C@H]1C[C@@H](O[C@H]2C[C@@H](O[C@H]3C[C@](C)(O)[C@H](O)[C@@H](C)O3)[C@@H](O)[C@@H](C)O2)[C@H](O)[C@@H](C)O1 [plicamycin (mithramycin), plicamycin] | – | – | – | 6.39 | 95.8 | −3.94 | – | – | – | 98.09 | 72 | 133.03 | 114.66 | 38.3 | 38.9 | did not result in a Tm change | 1.35 | DTT Helicase unwinding inhibition [%] 2.5 µM triplicates [2]: 71.99%; mode of helicase inhibition towards dsDNA substrate [2]: competitive mode of inhibition towards the dsDNA substrate; IC50 ([2]; Helicase IC50 [µM]): 3.57 µM; inhibition at 2.5 µM ([2]; read-out: Helicase unwinding inhibition 2.5 µM triplicates): 39%; Helicase ATPase activity PLUS DNA substrate 2 µM [3]: 159.86; Helicase ATPase activity [%] 2 µM [3]: 125.71%; remaining NTPase activity [3]: 114.6%; inhibition at 20 µM ([3]; read-out: ATPase inhibition [%] 20 µM (HC Helicase ATPase inhibition [%])): 19.8% |
| Cc1ccc(C(=O)Nc2ccc(S(=O)(=O)O)c3cc(S(=O)(=O)O)cc(S(=O)(=O)O)c23)cc1NC(=O)c1cccc(NC(=O)Nc2cccc(C(=O)Nc3cc(C(=O)Nc4ccc(S(=O)(=O)O)c5cc(S(=O)(=O)O)cc(S(=O)(=O)O)c45)ccc3C)c2)c1 [suramin hexasodium] | no changes in IC50 | no changes in IC50 | 0.24 | – | 98 | – | 44.3 | 46.6 | increase in melting temperature; also recorded: concentration-dependent protein stabilizing effect | 92.60 | 53.1 | 63.38 | 121.61 | 36.8 | 36.5 | decrease in Tm | 5.42 | RdRp Inhibition [%] 20 µM (PS Inhibition RdRp [%]) [1]: 98.49%; inhibition of helicase NTPase activity, 2 mM DTT [3]: only active in presence of dsDNA substrate; inhibition of helicase NTPase activity, absence of DTT [3]: showed inhibition in absence of DTT, independent of the presence of the dsDNA substrate; fold stronger inhibition of SARS-CoV-2 RdRp compared to Remdesivir (SARS-CoV-2 RdRp): 20 fold |
